{
  "source": "patent US20260250519A1",
  "about": "“Copper Containing Compounds and Compositions for Antimicrobial Paint and Coating” (ARXADA, LLC, priority 2022, published 2026)",
  "key": {"[1]": {"experiment": "Compatibility of copper compounds in flat wall paint, visual assessment of dry film for grits", "assay_type": "physicochemical", "conditions": "600 ppm Cu in acrylic flat wall paint; dry film inspected for grits", "procedure": "The compatibilities of copper compounds in paint were evaluated via visual assessment of dry film appearance of a flat wall paint (50% PVC, 35% Solid Vol, 45 g/L VOC, Table 1)."}, "[2]": {"test_system": "Escherichia coli (ATCC 8739)", "experiment": "Modified JIS Z2801 antibacterial efficacy in dry paint film (μBCC, ZnO)", "assay_type": "cell-based", "conditions": "ZnO 0 ppm in flat wall paint; for 2 hr Contact Time % ↓ / 2 hr Contact Time Log10 ↓: relative to blank paint", "procedure": "(§1) In brief, μBCC dispersion and optional ZnO dispersion (25 wt %) were added into a flat wall paint (50% PVC, 35% Solid Vol, 45 g/L VOC, Table 1) for target Cu and ZnO level, respectively. The paints were brushed onto the sterilized plastic filter paper. Each side of the filter paper was painted twice and the resulting coated paper was dried at ambient condition for 3 days. The dried coatings were then leached against 10 L water for 24 hours (4 water changes for the first 8 hour). Each of three (3) bacterial inoculum (0.4 mL): Escherichia coli (ATCC 8739), Staphylococcus aureus (ATCC 6538), Pseudomonas aeruginosa (ATCC 15442) was used to inoculate the dry film (40 mm×40 mm) of test paint to achieve 1.0 to 4.0×10^5 cfm/mL of inoculum concentration per each bacteria on dry surface of each test paint. The test paints were incubated at 35±1° C. and 90% relative humidity (RH) for 2 hour. The degrees of bacterial contamination of all samples were determined relative to blank paint via viable cell count of bacteria by agar plate culture method."}, "[3]": {"test_system": "Pseudomonas aeruginosa (ATCC 15442)", "experiment": "Modified JIS Z2801 antibacterial efficacy in dry paint film (μBCC, ZnO)", "assay_type": "cell-based", "conditions": "ZnO 0 ppm in flat wall paint; for 2 hr Contact Time % ↓ / 2 hr Contact Time Log10 ↓: relative to blank paint", "procedure": "as §1"}, "[4]": {"test_system": "Staphylococcus aureus (ATCC 6538)", "experiment": "Modified JIS Z2801 antibacterial efficacy in dry paint film (μBCC, ZnO)", "assay_type": "cell-based", "conditions": "ZnO 0 ppm in flat wall paint; for 2 hr Contact Time % ↓ / 2 hr Contact Time Log10 ↓: relative to blank paint", "procedure": "as §1"}, "[5]": {"test_system": "Pseudomonas aeruginosa (ATCC 15442)", "experiment": "Interim EPA method for antimicrobial surface coatings, flat wall paint", "assay_type": "cell-based", "conditions": "1670 ppm in flat wall paint", "procedure": "(§2) The antibacterial efficacies of copper-containing composition in dry paint film were evaluated using an interim EPA method (Interim Method for Evaluating the Efficacy of Antimicrobial Surface Coatings: Oct. 2, 2020). In brief, μBCC dispersion was added into a flat wall paint (38% Solid Vol, <50 g/L VOC) for target Cu level. The paints were drawn-down onto the sterilized steel substrate (1 inch by 1 inch of AISI type 304 stainless steel). The resulting coated substrate was dried at ambient condition for at least 24 hours. Each of two (2) bacterial inoculum ([…]): Staphylococcus aureus (ATCC 6538) and Pseudomonas aeruginosa (ATCC 15442) was used to inoculate the dry film of test paint to achieve 10^4 to 10^5 cfm/carrier of each bacteria on dry surface of each test paint. The test paints were incubated at 22° C. and 30-40% RH for 2 hours. The degrees of bacterial contamination were determined via viable cell count for antibacterial efficacy relative to the uncoated substrate."}, "[6]": {"test_system": "Staphylococcus aureus (ATCC 6538)", "experiment": "Interim EPA method for antimicrobial surface coatings, flat wall paint", "assay_type": "cell-based", "conditions": "Cu 1670 ppm in flat wall paint", "procedure": "as §2"}, "[7]": {"test_system": "Aspergillus niger (ATCC 6275), Aureobasidium pullulans (ATCC 9348) and Penicillium citrinum (ATCC 9849)", "experiment": "ASTM resistance to growth of mold on interior coatings in an environmental chamber", "assay_type": "cell-based", "conditions": "for antifungal test pass/fail: Pass = rating 8-10 (Table 9); for Avg Rating: no Quat, 4 weeks in chamber", "procedure": "Two coatings were brushed onto both faces and all edges of wood panel (allowing 1 day between coats). The resulting coated panels were dried at 23±2° C. and 50±5% relative humidity for 4 days. […] In the environmental chamber, the dried coated panels were hung vertically with the bottom approximately 3 inch above the surface of the inoculated soil and with sufficient spacing to allow free circulation of air and to prevent contact between panels or with wall surfaces. […] The degrees of fungal contamination were assessed using the rating scale in Table 9."}},
  "note": "“Also recorded” adds a separate entry of the source.",
  "data": [
    {"smiles": "O=C([O-])[O-].[Cu+2].[Cu+2].[OH-].[OH-]", "note": "[μBCC, Micronized basic copper carbonate]", "values": [
      {"measurement": "Compatibilities of Copper Compounds in Paint", "setting": "[1]", "value": "compatible; also recorded: Compatible (no grits)"},
      {"measurement": "2 hr Contact Time Avg", "setting": "[2]; Cu 165 ppm", "value": "<5.7E+01"},
      {"measurement": "2 hr Contact Time Log10", "setting": "[2]; Cu 165 ppm", "value": "<1.75"},
      {"measurement": "2 hr Contact Time % ↓", "setting": "[2]; Cu 165 ppm", "value": "≥99.920", "unit": "%"},
      {"measurement": "2 hr Contact Time Log10 ↓", "setting": "[2]; Cu 165 ppm", "value": "≥3.10"},
      {"measurement": "2 hr Contact Time Avg", "setting": "[2]; Cu 330 ppm", "value": "<1.0E+01"},
      {"measurement": "2 hr Contact Time Log10", "setting": "[2]; Cu 330 ppm", "value": "<1.00"},
      {"measurement": "2 hr Contact Time % ↓", "setting": "[2]; Cu 330 ppm", "value": "≥99.986", "unit": "%"},
      {"measurement": "2 hr Contact Time Log10 ↓", "setting": "[2]; Cu 330 ppm", "value": "≥3.85"},
      {"measurement": "2 hr Contact Time Avg", "setting": "[2]; Cu 824 ppm", "value": "<4.0E+01"},
      {"measurement": "2 hr Contact Time Log10", "setting": "[2]; Cu 824 ppm", "value": "<1.60"},
      {"measurement": "2 hr Contact Time % ↓", "setting": "[2]; Cu 824 ppm", "value": "≥99.944", "unit": "%"},
      {"measurement": "2 hr Contact Time Log10 ↓", "setting": "[2]; Cu 824 ppm", "value": "≥3.25"},
      {"measurement": "2 hr Contact Time Avg", "setting": "[2]; Cu 1650 ppm", "value": "<1.0E+01"},
      {"measurement": "2 hr Contact Time Log10", "setting": "[2]; Cu 1650 ppm", "value": "<1.00"},
      {"measurement": "2 hr Contact Time % ↓", "setting": "[2]; Cu 1650 ppm", "value": "≥99.986", "unit": "%"},
      {"measurement": "2 hr Contact Time Log10 ↓", "setting": "[2]; Cu 1650 ppm", "value": "≥3.85"},
      {"measurement": "2 hr Contact Time Avg", "setting": "[3]; Cu 165 ppm", "value": "1.2E+03"},
      {"measurement": "2 hr Contact Time Log10", "setting": "[3]; Cu 165 ppm", "value": 3.08},
      {"measurement": "2 hr Contact Time % ↓", "setting": "[3]; Cu 165 ppm", "value": 93.632, "unit": "%"},
      {"measurement": "2 hr Contact Time Log10 ↓", "setting": "[3]; Cu 165 ppm", "value": 1.20},
      {"measurement": "2 hr Contact Time Avg", "setting": "[3]; Cu 330 ppm", "value": "1.3E+03"},
      {"measurement": "2 hr Contact Time Log10", "setting": "[3]; Cu 330 ppm", "value": 3.13},
      {"measurement": "2 hr Contact Time % ↓", "setting": "[3]; Cu 330 ppm", "value": 92.912, "unit": "%"},
      {"measurement": "2 hr Contact Time Log10 ↓", "setting": "[3]; Cu 330 ppm", "value": 1.15},
      {"measurement": "2 hr Contact Time Avg", "setting": "[3]; Cu 824 ppm", "value": "<4.7E+01"},
      {"measurement": "2 hr Contact Time Log10", "setting": "[3]; Cu 824 ppm", "value": "<1.67"},
      {"measurement": "2 hr Contact Time % ↓", "setting": "[3]; Cu 824 ppm", "value": "≥99.754", "unit": "%"},
      {"measurement": "2 hr Contact Time Log10 ↓", "setting": "[3]; Cu 824 ppm", "value": "≥2.61"},
      {"measurement": "2 hr Contact Time Avg", "setting": "[3]; Cu 1650 ppm", "value": "2.7E+01"},
      {"measurement": "2 hr Contact Time Log10", "setting": "[3]; Cu 1650 ppm", "value": 1.43},
      {"measurement": "2 hr Contact Time % ↓", "setting": "[3]; Cu 1650 ppm", "value": 99.860, "unit": "%"},
      {"measurement": "2 hr Contact Time Log10 ↓", "setting": "[3]; Cu 1650 ppm", "value": 2.85},
      {"measurement": "2 hr Contact Time Avg", "setting": "[4]; Cu 165 ppm", "value": "6.3E+01"},
      {"measurement": "2 hr Contact Time Log10", "setting": "[4]; Cu 165 ppm", "value": 1.80},
      {"measurement": "2 hr Contact Time % ↓", "setting": "[4]; Cu 165 ppm", "value": 99.936, "unit": "%"},
      {"measurement": "2 hr Contact Time Log10 ↓", "setting": "[4]; Cu 165 ppm", "value": 3.20},
      {"measurement": "2 hr Contact Time Avg", "setting": "[4]; Cu 330 ppm", "value": "<2.0E+01"},
      {"measurement": "2 hr Contact Time Log10", "setting": "[4]; Cu 330 ppm", "value": "<1.30"},
      {"measurement": "2 hr Contact Time % ↓", "setting": "[4]; Cu 330 ppm", "value": "≥99.980", "unit": "%"},
      {"measurement": "2 hr Contact Time Log10 ↓", "setting": "[4]; Cu 330 ppm", "value": "≥3.70"},
      {"measurement": "2 hr Contact Time Avg", "setting": "[4]; Cu 824 ppm", "value": "<4.0E+01"},
      {"measurement": "2 hr Contact Time Log10", "setting": "[4]; Cu 824 ppm", "value": "<1.60"},
      {"measurement": "2 hr Contact Time % ↓", "setting": "[4]; Cu 824 ppm", "value": "≥99.960", "unit": "%"},
      {"measurement": "2 hr Contact Time Log10 ↓", "setting": "[4]; Cu 824 ppm", "value": "≥3.40"},
      {"measurement": "2 hr Contact Time Avg", "setting": "[4]; Cu 1650 ppm", "value": "<1.0E+01"},
      {"measurement": "2 hr Contact Time Log10", "setting": "[4]; Cu 1650 ppm", "value": "<1.00"},
      {"measurement": "2 hr Contact Time % ↓", "setting": "[4]; Cu 1650 ppm", "value": "≥99.990", "unit": "%"},
      {"measurement": "2 hr Contact Time Log10 ↓", "setting": "[4]; Cu 1650 ppm", "value": "≥4.00"},
      {"measurement": "2 hr Contact Time Avg", "setting": "[5]", "value": "1.0E+00"},
      {"measurement": "2 hr Contact Time Log10", "setting": "[5]", "value": 0.00},
      {"measurement": "2 hr Contact Time % ↓", "setting": "[5]; relative to uncoated substrate", "value": 99.9964, "unit": "%"},
      {"measurement": "2 hr Contact Time Log10 ↓", "setting": "[5]; relative to uncoated substrate", "value": 4.45},
      {"measurement": "2 hr Contact Time Avg", "setting": "[6]", "value": "6.6E+01"},
      {"measurement": "2 hr Contact Time Log10", "setting": "[6]", "value": 1.82},
      {"measurement": "2 hr Contact Time % ↓", "setting": "[6]; relative to uncoated substrate", "value": 99.9287, "unit": "%"},
      {"measurement": "2 hr Contact Time Log10 ↓", "setting": "[6]; relative to uncoated substrate", "value": 3.15},
      {"measurement": "antifungal test pass/fail", "setting": "[7]; 167 ppm Cu", "value": "fails"},
      {"measurement": "antifungal test pass/fail", "setting": "[7]; 333 ppm Cu", "value": "passes"},
      {"measurement": "Avg Rating", "setting": "[7]; Cu level 167 ppm", "value": 7.7},
      {"measurement": "Avg Rating", "setting": "[7]; Cu level 333 ppm", "value": 9.3}
    ]}
  ]
}
